According to ChEMBL document CHEMBL1154749, “P2'-truncated BACE-1 inhibitors with a novel hydroxethylene-like core” (Eur J Med Chem, 2010):

Biological target: Beta-secretase 1 (Homo sapiens, UniProt P56817)
Assay: Inhibition of human brain BACE1 expressed in Escherichia coli BL21(DE) by TRF assay

Sequence of Beta-secretase 1 (P56817 whole entry): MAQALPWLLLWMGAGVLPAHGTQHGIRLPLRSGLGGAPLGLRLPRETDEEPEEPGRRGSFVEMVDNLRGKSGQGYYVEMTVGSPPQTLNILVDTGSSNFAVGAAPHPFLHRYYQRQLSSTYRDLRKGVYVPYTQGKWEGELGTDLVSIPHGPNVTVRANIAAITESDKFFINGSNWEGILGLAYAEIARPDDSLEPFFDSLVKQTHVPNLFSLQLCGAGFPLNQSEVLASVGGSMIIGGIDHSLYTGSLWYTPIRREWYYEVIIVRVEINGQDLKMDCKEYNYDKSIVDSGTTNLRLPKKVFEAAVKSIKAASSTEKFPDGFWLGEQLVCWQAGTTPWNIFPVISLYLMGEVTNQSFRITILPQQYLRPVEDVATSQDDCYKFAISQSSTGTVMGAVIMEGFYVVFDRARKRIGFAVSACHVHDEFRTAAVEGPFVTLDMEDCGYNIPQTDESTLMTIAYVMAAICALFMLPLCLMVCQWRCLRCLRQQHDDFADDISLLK

IC50 [nM] | SMILES
140 | COc1ccc(COC[C@@H](C[C@H](O)[C@H](COc2cc(F)cc(F)c2)NC(=O)c2cc(C(=O)N[C@H](C)c3ccccc3)cc(N(C)S(C)(=O)=O)c2)OC)cc1
> 10000 | COC[C@@H](C[C@H](O)[C@H](COc1cc(F)cc(F)c1)NC(=O)c1cc(C(=O)N[C@H](C)c2ccccc2)cc(N(C)S(C)(=O)=O)c1)OC
480 | CO[C@@H](COC(C)C)C[C@H](O)[C@H](COc1cc(F)cc(F)c1)NC(=O)c1cc(C(=O)N[C@H](C)c2ccccc2)cc(N(C)S(C)(=O)=O)c1
240 | CO[C@@H](COCc1ccccc1)C[C@H](O)[C@H](COc1cc(F)cc(F)c1)NC(=O)c1cc(C(=O)N[C@H](C)c2ccccc2)cc(N(C)S(C)(=O)=O)c1
6500 | CO[C@@H](COc1ccccc1)C[C@H](O)[C@H](COc1cc(F)cc(F)c1)NC(=O)c1cc(C(=O)N[C@H](C)c2ccccc2)cc(N(C)S(C)(=O)=O)c1
> 10000 | CO[C@@H](CNCc1ccccc1)C[C@@H](O)[C@H](COc1cc(F)cc(F)c1)NC(=O)c1cc(C(=O)N[C@H](C)c2ccccc2)cc(N(C)S(C)(=O)=O)c1
1800 | COc1ccc(COC[C@@H](C[C@H](O)[C@H](COc2cc(F)cc(F)c2)NC(=O)c2cc(N(C)C[C@H]3C[C@@H]3C)nc(N(C)S(C)(=O)=O)c2)OC)cc1
1500 | CCc1cn2c3c(ccc(C(=O)N[C@@H](COc4cc(F)cc(F)c4)[C@@H](O)C[C@H](COCc4ccc(OC)cc4)OC)c13)N(C)S(=O)(=O)CC2
> 10000 | CO[C@@H](CO)C[C@H](O)[C@H](COc1cc(F)cc(F)c1)NC(=O)c1cc(C(=O)N[C@H](C)c2ccccc2)cc(N(C)S(C)(=O)=O)c1
1860 | CO[C@@H](COCC1CC1)C[C@H](O)[C@H](COc1cc(F)cc(F)c1)NC(=O)c1cc(C(=O)N[C@H](C)c2ccccc2)cc(N(C)S(C)(=O)=O)c1
1500 | CO[C@@H](CNc1ccccc1)C[C@H](O)[C@H](COc1cc(F)cc(F)c1)NC(=O)c1cc(C(=O)N[C@H](C)c2ccccc2)cc(N(C)S(C)(=O)=O)c1
2030 | C=CCOC[C@@H](C[C@H](O)[C@H](COc1cc(F)cc(F)c1)NC(=O)c1cc(C(=O)N[C@H](C)c2ccccc2)cc(N(C)S(C)(=O)=O)c1)OC
> 10000 | CO[C@@H](COCc1ccc(F)cc1)C[C@H](O)[C@H](COc1cc(F)cc(F)c1)NC(=O)c1cc(C(=O)N[C@H](C)c2ccccc2)cc(N(C)S(C)(=O)=O)c1
> 10000 | COc1cccc(COC[C@@H](C[C@H](O)[C@H](COc2cc(F)cc(F)c2)NC(=O)c2cc(C(=O)N[C@H](C)c3ccccc3)cc(N(C)S(C)(=O)=O)c2)OC)c1
1500 | CO[C@@H](CNc1ccc(F)cc1)C[C@H](O)[C@H](COc1cc(F)cc(F)c1)NC(=O)c1cc(C(=O)N[C@H](C)c2ccccc2)cc(N(C)S(C)(=O)=O)c1
> 10000 | CO[C@@H](CNCc1ccccc1)C[C@H](O)[C@H](COc1cc(F)cc(F)c1)NC(=O)c1cc(C(=O)N[C@H](C)c2ccccc2)cc(N(C)S(C)(=O)=O)c1
